The results in this text go back to patent US9663513B2, “Pyrimidine PDE10 inhibitors” (Merck Sharp & Dohme Corp., priority 2012, dated 2017).

Chain of human PDE10A2 (Q9Y233 267-1055): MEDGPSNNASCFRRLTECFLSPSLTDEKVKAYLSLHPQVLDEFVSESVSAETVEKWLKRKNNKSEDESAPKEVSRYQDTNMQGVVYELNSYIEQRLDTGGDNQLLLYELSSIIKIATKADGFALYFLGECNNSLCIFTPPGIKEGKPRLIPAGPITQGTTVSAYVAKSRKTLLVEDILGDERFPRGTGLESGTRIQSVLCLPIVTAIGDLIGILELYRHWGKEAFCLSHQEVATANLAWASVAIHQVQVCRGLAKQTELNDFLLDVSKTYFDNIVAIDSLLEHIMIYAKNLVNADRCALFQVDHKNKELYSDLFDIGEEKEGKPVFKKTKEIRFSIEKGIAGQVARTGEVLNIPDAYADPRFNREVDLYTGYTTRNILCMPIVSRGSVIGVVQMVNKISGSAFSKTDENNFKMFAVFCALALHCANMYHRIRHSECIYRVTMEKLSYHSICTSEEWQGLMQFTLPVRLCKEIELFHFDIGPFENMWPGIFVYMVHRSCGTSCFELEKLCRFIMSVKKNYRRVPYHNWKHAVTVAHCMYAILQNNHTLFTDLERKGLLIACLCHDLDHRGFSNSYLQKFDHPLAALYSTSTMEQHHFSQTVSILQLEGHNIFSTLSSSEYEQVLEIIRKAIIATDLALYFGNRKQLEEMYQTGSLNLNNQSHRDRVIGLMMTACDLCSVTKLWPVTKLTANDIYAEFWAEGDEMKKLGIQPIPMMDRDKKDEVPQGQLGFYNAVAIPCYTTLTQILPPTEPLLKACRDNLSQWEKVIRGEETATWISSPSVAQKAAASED

The target of the experiment is human PDE10A2 (Homo sapiens (Human), UniProt Q9Y233). Nature of the experiment: PDE10 fluorescence polarization (IMAP FP) inhibition assay. In kind it is biochemical. The settings on record: human PDE10A2 from transfected AD293 cells; FAM-labeled cAMP 50 nM; apparent inhibition constant; read-out: PDE10A Ki. Summed up:
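Cytoplasmic lysate of AD293 cells transiently expressing human PDE10A2 (enzyme level giving 20% conversion) incubated with 50 nM FAM-cAMP in pH 7.2 Tris/MgCl2 buffer, 30 min at room temperature. IMAP binding solution added, FP read after ≥1 h; 10-point 3-fold compound titrations fitted to a four-parameter equation.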
In general terms: In fluorescence polarisation assays a small probe gives low polarisation when free and higher when bound to something large.
On to `Cc1ncc(C2CCC3(CC2)OCCO3)c(OC[C@H]2C[C@H]2c2ccccn2)n1` [Example 198, 2-methyl-4-(((1S,2R)-2-(pyridin-2-yl)cyclopropyl)methoxy)-5-(1,4-dioxaspiro[4.5]decan-8-yl)pyrimidine], for which the Ki stood at 27.6 nM.
Then `Cc1ncc([C@H]2CC[C@H](O)CC2)c(OC[C@H]2C[C@@H]2c2ccccn2)n1` [Example 199, Trans-4-(2-methyl-4-(((1S,2S)-2-(pyridin-2-yl)cyclopropyl)methoxy)pyrimidin-5-yl)cyclohexanol], with 4.79 nM.
As for `COc1cccc([C@H]2C[C@@H]2COc2nc(C)ncc2C2CCC3(CC2)OCCO3)n1` [Example 200, 4-(((1S,2S)-2-(6-methoxypyridin-2-yl)cyclopropyl)methoxy)-2-methyl-5-(1,4-dioxaspiro[4.5]decan-8-yl)pyrimidine], the figure is 1.61 nM.
With `Cc1ccnc([C@H]2C[C@@H]2COc2nc(C)ncc2C2CCC3(CC2)OCCO3)c1` [Example 201, 2-methyl-4-(((1S,2S)-2-(4-methylpyridin-2-yl)cyclopropyl)methoxy)-5-(1,4-dioxaspiro[4.5]decan-8-yl)pyrimidine], the Ki is 17.1 nM.
Then `COc1cccc([C@H]2C[C@@H]2COc2nc(C)ncc2C2CCC(=O)CC2)n1` [Example 202, 4-(4-(((1S,2S)-2-(6-methoxypyridin-2-yl)cyclopropyl)methoxy)-2-methylpyrimidin-5-yl)cyclohexanone], with 2.96 nM.
As for `Cc1ccnc([C@H]2C[C@@H]2COc2nc(C)ncc2C2CCC(=O)CC2)c1` [Example 203, 4-(2-methyl-4-(((1S,2S)-2-(4-methylpyridin-2-yl)cyclopropyl)methoxy)pyrimidin-5-yl)cyclohexanone], the figure is 30.8 nM; as for `Cc1ncc(C2CCC3(CC2)OCCO3)c(OC[C@@H](C)Cc2ccc3ccccc3n2)n1` [Example 204, 2-((2S)-2-methyl-3-(2-methyl-5-(1,4-dioxaspiro[4.5]decan-8-yl)pyrimidin-4 yloxy)propyl)quinoline], 0.73 nM; as for `Cc1ncc([C@@H]2CCC3(C[C@H]2O)OCCO3)c(OC[C@H]2C[C@@H]2c2ccc3ccccc3n2)n1` [Example 205, (7R,8S)-8-(2-methyl-4-(((1S,2S)-2-(quinolin-2-yl)cyclopropyl)methoxy)pyrimidin-5-yl)-1,4-dioxaspiro[4.5]decan-7-ol], 7.08 nM.
In the case of `Cc1ncc(C2(O)CCC3(CC2)OCCO3)c(OC[C@H]2C[C@@H]2c2ccc3ccccc3n2)n1` [Example 206, 8-(2-methyl-4-(((1S,2S)-2-(quinolin-2-yl)cyclopropyl)methoxy)pyrimidin-5-yl)-1,4-dioxaspiro[4.5]decan-8-ol], the Ki amounted to 6.28 nM.
As for `COc1ccc([C@H]2C[C@@H]2COc2nc(C)ncc2C2CCCC(=O)C2)nc1` (stereo partly drawn) [Example 207, 3-(4-(((1S,2S)-2-(5-Methoxypyridin-2-yl)cyclopropyl)methoxy)-2-methylpyrimidin-5-yl)cyclohexanone], the figure is 0.48 nM.
Then `Cc1ccc([C@H]2C[C@@H]2COc2nc(C)ncc2C2CCCCC2)nc1` [Example 208, 5-Cyclohexyl-2-methyl-4-(((1S,2S)-2-(5-methylpyridin-2-yl)cyclopropyl)methoxy)pyrimidine], with 2.28 nM.
As for `Cc1ccc([C@H]2C[C@@H]2COc2nc(C)ncc2C2CCC(F)(F)CC2)nc1` [Example 209, 5-(4,4-Difluorocyclohexyl)-2-methyl-4-(((1S,2S)-2-(5-methylpyridin-2-yl)cyclopropyl)methoxy)pyrimidine], the figure is 12.1 nM.
`Cc1ccc([C@H]2C[C@@H]2COc2nc(C)ncc2[C@]2(F)CC[C@@H](O)CC2)nc1` [Example 210, (trans)-4-Fluoro-4-(2-methyl-4-(((1S,2S)-2-(5-methylpyridin-2-yl)cyclopropyl)methoxy)pyrimidin-5-yl)cyclohexanol]: the Ki was 7.85 nM.
As for `COc1ccc([C@H]2C[C@@H]2COc2nc(C)ncc2C2(F)CCCCC2)nc1` [Example 211, 5-(1-fluorocyclohexyl)-4-(((1S,2S)-2-(5-methoxypyridin-2-yl)cyclopropyl)methoxy)-2-methylpyrimidine], the Ki amounted to 19.4 nM.
Regarding `Cc1ccc([C@H]2C[C@@H]2COc2nc(C)ncc2[C@H]2CC[C@@](C)(O)CC2)nc1` [Example 212, (cis)1-Methyl-4-(2-methyl-4-(((1S,2S)-2-(5-methylpyridin-2-yl)cyclopropyl)methoxy)pyrimidin-5-yl)cyclohexanol], the Ki stood at 12.4 nM.
As for `Cc1ccc([C@H]2C[C@@H]2COc2nc(C)ncc2[C@H]2CC[C@](C)(O)CC2)nc1` [Example 213, (trans)1-Methyl-4-(2-methyl-4-(((1S,2S)-2-(5-methylpyridin-2-yl)cyclopropyl)methoxy)pyrimidin-5-yl)cyclohexanol], the figure is 6.86 nM; as for `CC[C@]1(O)CC[C@@H](c2cnc(C)nc2OC[C@H]2C[C@@H]2c2ccc(C)cn2)CC1` [Example 214, (cis)1-Ethyl-4-(2-methyl-4-(((1S,2S)-2-(5-methylpyridin-2-yl)cyclopropyl)methoxy)pyrimidin-5-yl)cyclohexanol], 19.4 nM.
Then `CC[C@]1(O)CC[C@H](c2cnc(C)nc2OC[C@H]2C[C@@H]2c2ccc(C)cn2)CC1` [Example 215, (trans)1-Ethyl-4-(2-methyl-4-(((1S,2S)-2-(5-methylpyridin-2-1)cyclopropyl)methoxy)pyrimidin-5-yl)cyclohexanol], with 15.3 nM.
As for `CCOC(=O)[C@H]1CC[C@@H](c2cnc(C)nc2OC[C@H]2C[C@@H]2c2ccc(OC)cn2)CC1` [Example 216, cis-Ethyl4-(4-(((1S,2S)-2-(5-methoxypyridin-2-yl)cyclopropyl)methoxy)-2-methylpyrimidin-5-yl)cyclohexanecarboxylate], the figure is 7.9 nM.
`COc1ccc([C@H]2C[C@@H]2COc2nc(C)ncc2[C@H]2CC[C@@H](C(=O)O)CC2)nc1` [Example 217, cis-4-(4-(((1S,2S)-2-(5-Methoxypyridin-2-yl)cyclopropyl)methoxy)-2-methylpyrimidin-5-yl)cyclohexanecarboxylic acid]: the Ki stood at 5.29 nM.
Then `Cc1ccc([C@H]2C[C@@H]2COc2nc(C)ncc2[C@H]2CC[C@@H](C(C)(C)O)CC2)nc1` [Example 221, (cis)2-(4-(2-methyl-4-(((1S,2S)-2-(5-methylpyridin-2-yl)cyclopropyl)methoxy)pyrimidin-5-yl)cyclohexyl)propan-2-ol], with 12.6 nM.
As for `COc1ccc([C@H]2C[C@@H]2COc2nc(C)ncc2-c2ccc(-c3nn[nH]n3)cc2)nc1` [Example 222, 5-(4-(1H-tetrazol-5-yl)phenyl)-4-(((1S,2S)-2-(5-methoxypyridin-2-yl)cyclopropyl)methoxy)-2-methylpyrimidine], the figure is 0.1 nM; as for `COc1ccc([C@H]2C[C@@H]2COc2nc(C)ncc2-c2ccc(-c3nnn(C)n3)cc2)nc1` [Example 223, 4-(((1S,2S)-2-(5-methoxypyridin-2-yl)cyclopropyl)methoxy)-2-methyl-5-(4-(2-methyl-2H-tetrazol-5-yl)phenyl)pyrimidine], 2.02 nM.
As for `COc1ccc([C@H]2C[C@@H]2COc2nc(C)ncc2-c2ccc(-c3nnnn3C)cc2)nc1` [Example 224, 4-(((1S,2S)-2-(5-methoxypyridin-2-yl)cyclopropyl)methoxy)-2-methyl-5-(4-(1-methyl-1H-tetrazol-5-yl)phenyl)pyrimidine], the figure is 1.08 nM; as for `CCn1nnc(-c2ccc(-c3cnc(C)nc3OC[C@H]3C[C@@H]3c3ccc(OC)cn3)cc2)n1` [Example 225, 5-(4-(2-ethyl-2H-tetrazol-5-yl)phenyl)-4-(((1S,2S)-2-(5-methoxypyridin-2-yl)cyclopropyl)methoxy)-2-methylpyrimidine], 1.42 nM.
Take `CCn1nnnc1-c1ccc(-c2cnc(C)nc2OC[C@H]2C[C@@H]2c2ccc(OC)cn2)cc1` [Example 226, 5-(4-(1-ethyl-1H-tetrazol-5-yl)phenyl)-4-(((1S,2S)-2-(5-methoxypyridin-2-yl)cyclopropyl)methoxy)-2-methylpyrimidine]: the Ki stood at 0.77 nM.
As for `COc1ccc([C@H]2C[C@@H]2COc2nc(C)ncc2-c2ccc(-c3nnn(C(F)F)n3)cc2)nc1` [Example 227, 5-(4-(2-(difluoromethyl)-2H-tetrazol-5-yl)phenyl)-4-(((1S,2S)-2-(5-methoxypyridin-2-yl)cyclopropyl)methoxy)-2-methylpyrimidine], the figure is 3.3 nM; as for `COc1ccc([C@H]2C[C@@H]2COc2nc(C)ncc2-c2ccc(-c3nnnn3C(F)F)cc2)nc1` [Example 228, 5-(4-(1-(difluoromethyl)-1H-tetrazol-5-yl)phenyl)-4-(((1S,2S)-2-(5-methoxypyridin-2-yl)cyclopropyl)methoxy)-2-methylpyrimidine], 2.06 nM; as for `COc1ccc([C@H]2C[C@@H]2COc2nc(C)ncc2-c2ccc(-c3nn[nH]n3)nc2)nc1` [Example 229, 5-(6-(2H-tetrazol-5-yl)pyridin-3-yl)-4-(((1S,2S)-2-(5-methoxypyridin-2-yl)cyclopropyl)methoxy)-2-methylpyrimidine], 0.13 nM.
Then `COc1ccc([C@H]2C[C@@H]2COc2nc(C)ncc2-c2ccc(-c3nnn(C)n3)nc2)nc1` [Example 230, 4-(((1S,2S)-2-(5-methoxypyridin-2-yl)cyclopropyl)methoxy)-2-methyl-5-(6-(2-methyl-2H-tetrazol-5-yl)pyridin-3-yl)pyrimidine], with 1.64 nM.
As for `COc1ccc([C@H]2C[C@@H]2COc2nc(C)ncc2-c2ccc(-c3nnnn3C)nc2)nc1` [Example 231, 4-(((1S,2S)-2-(5-methoxypyridin-2-yl)cyclopropyl)methoxy)-2-methyl-5-(6-(1-methyl-1H-tetrazol-5-yl)pyridin-3-yl)pyrimidine], the figure is 1.78 nM.
